Holding throughout (assay): Kinase selectivity, scanMAX Kinase assay panel (DiscoverX), % control at 1 uM
Format in all cases: binding

Assay [1] addresses T1, scanMAX Kinase assay panel (Homo sapiens, UniProt P42679).
T1 construct: purchased DiscoverX
T1 sequence (P42679 1-507): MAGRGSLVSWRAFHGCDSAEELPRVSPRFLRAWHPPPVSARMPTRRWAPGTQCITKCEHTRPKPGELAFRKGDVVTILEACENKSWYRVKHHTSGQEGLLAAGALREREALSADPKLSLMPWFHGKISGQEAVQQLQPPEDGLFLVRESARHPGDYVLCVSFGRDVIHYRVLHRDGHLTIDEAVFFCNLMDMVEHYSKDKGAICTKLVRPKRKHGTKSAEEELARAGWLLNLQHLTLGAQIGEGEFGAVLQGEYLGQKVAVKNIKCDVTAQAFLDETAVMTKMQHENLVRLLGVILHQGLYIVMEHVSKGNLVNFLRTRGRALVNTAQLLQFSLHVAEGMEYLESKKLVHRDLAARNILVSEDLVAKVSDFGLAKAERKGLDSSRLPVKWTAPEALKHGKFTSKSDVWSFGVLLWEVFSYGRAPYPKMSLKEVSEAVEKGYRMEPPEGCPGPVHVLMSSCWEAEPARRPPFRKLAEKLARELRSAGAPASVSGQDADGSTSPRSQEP
As to conditions: CTK; 1 uM; read-out: Percent Control (%). In outline:
(§1)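 Binding across the scanMAX kinase panel was tested at 1 uM compound. % control = (compound − positive control)/(negative control − positive control) × 100; below 35 counted as active.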

The target of assay [2] is T2, scanMAX Kinase assay panel (Homo sapiens, UniProt P43405).
T2 construct: purchased DiscoverX
As to conditions: SYK; 1 uM; read-out: Percent Control (%). The method, boiled down:
as §1

In assay [3] the target is T3, scanMAX Kinase assay panel (Homo sapiens, UniProt P30530).
T3 construct: purchased DiscoverX
T3 sequence (P30530 26-894): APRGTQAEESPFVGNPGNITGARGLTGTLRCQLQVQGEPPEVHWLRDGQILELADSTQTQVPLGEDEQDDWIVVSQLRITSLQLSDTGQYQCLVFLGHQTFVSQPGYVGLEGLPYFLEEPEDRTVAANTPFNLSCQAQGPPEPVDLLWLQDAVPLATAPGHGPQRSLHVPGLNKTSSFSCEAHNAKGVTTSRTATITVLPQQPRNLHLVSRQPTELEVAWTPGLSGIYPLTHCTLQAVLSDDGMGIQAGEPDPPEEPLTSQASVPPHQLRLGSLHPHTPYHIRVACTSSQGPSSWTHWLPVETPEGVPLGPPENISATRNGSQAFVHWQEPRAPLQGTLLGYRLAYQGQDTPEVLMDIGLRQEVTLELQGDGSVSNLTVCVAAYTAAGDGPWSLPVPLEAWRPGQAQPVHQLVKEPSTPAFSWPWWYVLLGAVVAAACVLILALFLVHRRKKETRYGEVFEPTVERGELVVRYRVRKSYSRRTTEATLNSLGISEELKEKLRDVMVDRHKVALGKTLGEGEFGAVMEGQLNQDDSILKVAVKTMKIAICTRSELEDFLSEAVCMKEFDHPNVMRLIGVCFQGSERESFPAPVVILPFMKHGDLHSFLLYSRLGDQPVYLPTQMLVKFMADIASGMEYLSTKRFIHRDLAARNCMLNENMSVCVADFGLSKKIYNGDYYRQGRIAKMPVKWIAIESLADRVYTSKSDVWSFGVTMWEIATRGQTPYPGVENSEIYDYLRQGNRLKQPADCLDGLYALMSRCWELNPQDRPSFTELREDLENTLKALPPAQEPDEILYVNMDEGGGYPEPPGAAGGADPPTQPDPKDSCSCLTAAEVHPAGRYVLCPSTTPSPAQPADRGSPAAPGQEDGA
To be noted: AXL; 1 uM; read-out: Percent Control (%). In outline:
as §1

The target in assay [4] is T4, scanMAX Kinase assay panel (Homo sapiens, UniProt Q13976).
T4 construct: purchased DiscoverX
T4 sequence (Q13976 1-671): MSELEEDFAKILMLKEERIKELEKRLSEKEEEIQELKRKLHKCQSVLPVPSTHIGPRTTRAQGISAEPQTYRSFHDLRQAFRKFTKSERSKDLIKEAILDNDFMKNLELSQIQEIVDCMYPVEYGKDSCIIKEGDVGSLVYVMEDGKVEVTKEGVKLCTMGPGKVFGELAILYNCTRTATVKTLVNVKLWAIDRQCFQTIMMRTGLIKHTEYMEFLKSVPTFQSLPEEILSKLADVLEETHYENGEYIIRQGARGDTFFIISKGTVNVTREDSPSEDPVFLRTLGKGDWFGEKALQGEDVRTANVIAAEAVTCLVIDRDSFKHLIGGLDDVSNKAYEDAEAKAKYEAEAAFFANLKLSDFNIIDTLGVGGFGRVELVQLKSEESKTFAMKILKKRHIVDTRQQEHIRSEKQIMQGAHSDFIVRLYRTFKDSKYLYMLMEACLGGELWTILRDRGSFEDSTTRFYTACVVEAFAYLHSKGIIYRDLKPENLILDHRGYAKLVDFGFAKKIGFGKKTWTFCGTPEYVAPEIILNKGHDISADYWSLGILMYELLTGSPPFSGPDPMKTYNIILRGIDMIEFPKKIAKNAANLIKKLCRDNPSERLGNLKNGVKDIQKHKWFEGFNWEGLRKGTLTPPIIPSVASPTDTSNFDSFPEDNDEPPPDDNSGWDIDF
To be noted: PRKG1; 1 uM; read-out: Percent Control (%). The method, boiled down:
as §1

Molecules are shown by their SMILES.

For the molecule `Cc1ccc(C(=O)Nc2ccc(CN3CCN(C)CC3)c(C(F)(F)F)c2)cc1C#Cc1cnc2c(Nc3cnn(C)c3)cccn12` [Example 1, 4-methyl-3-((8-((1-methyl-1H-pyrazol-4-yl)amino)imidazo[1,2-a]pyridin-3-yl)ethynyl)-N-(4-((4-methylpiperazin-1-yl)methyl)-3-(trifluoromethyl)phenyl)benzamide], the remaining binding at 1 µM in assay [1] is 22%; in assay [2], 2%; in assay [3], 2%; in assay [4] it was 94%.

Take `Cc1cn(-c2cc(NC(=O)c3ccc(C)c(C#Cc4cnc5c(Nc6cnn(C)c6)cccn45)c3)cc(C(F)(F)F)c2)cn1` [Example 12, 4-methyl-N-(3-(4-methyl-1H-imidazol-1-yl)-5-(trifluoromethyl)phenyl)-3-((8-((1-methyl-1H-pyrazol-4-yl)amino)imidazo[1,2-a]pyridin-3-yl)ethynyl)benzamide]: the remaining binding at 1 µM in assay [1] turned out to be 74%; in assay [2], 12%; in assay [3], 48%; in assay [4] it was 86%.

`Cc1ccc(NC(=O)C2(C(=O)Nc3ccc(F)cc3)CC2)cc1C#Cc1cnc2c(Nc3cnn(C(C)C)c3)cccn12` [Example 78]: the remaining binding at 1 µM worked out at 90% in assay [1], 78% in assay [2], 93% in assay [3] and 100% in assay [4].

These data come from patent US10870647B2, “Imidazopyridine derivative, method for preparing same, and pharmaceutical composition containing same as active ingredient for preventing or treating cancer” (DAEGU-GYEONGBUK MEDICAL INNOVATION FOUNDATION, priority 2016, dated 2020).
